In US20240335429A1, “MOLECULAR GLUE AND SALL4 DEGRADER” (National University of Singapore, priority 2021, published 2024):

Legend:
c-myc = test: Immunoblot of c-myc (SALL4 downstream target) in SNU-398 cells; type: cell-based, human; details: SNU-398 HCC cells, 24 h
Method: (§1) RIPA buffer containing freshly added protease inhibitors (2 mM PMSF) and protease inhibitor cocktail was used for cell lysis. The lysed cells were incubated for 10 min on ice and subsequently centrifuged at 4° C. for 10 min at 14,000 rpm. The protein concentrations of cell lysates were assessed using Bradford Assay as per manufacturer's instructions. The samples were denatured using 4× Sample buffer at 95° C. for 5 min. The samples were size resolved using polyacrylamide gel (8%) and Mini-PROTEAN Tetra Cell module. The size-resolved proteins were transferred onto PVDF via electroblotting using Mini Trans-Blot® module. The membrane was blocked using 5% BSA in TBST. The membrane was incubated with appropriate primary antibody (overnight) and secondary antibody (1 h). Immobilon Crescendo Western HRP substrate was used for signal development and images were acquired using darkroom development techniques.

IKZF1 = target: T1, IKZF1 (Homo sapiens, UniProt Q13422); test: Immunoblot of IKZF1 in SNU-398 HCC cells; type: cell-based; details: SNU-398 cells
T1 construct: with immunoblots in SNU-398 HCC cells; endogenous in cells; host or cells: SNU-398 HCC cells
Method: as §1

[1] = target: T2, SALL4B-Nluc in H1299 cells (Homo sapiens, UniProt Q96SW2+Q9UJQ4); test: Dual-luciferase SALL4B reporter cellular assay (main screen), Nluc/Fluc ratio; type: cell-based; details: NCI-H1299, read-out: maximum degradation (Dmax) of SALL4B_Nluc
T2 construct: expressed in transfected cells
From the text: (§2) SALL4A or SALL4B was cloned into the dual-luciferase plasmid (pLL3.7-EF1a-IRES-Gateway-nluc-2xHA-IRES2-fluc-hCL1-P2A-Puro from Prof. William G. Kaelin group) to create a stable cell line (H1299, SALL4 negative) that ectopically express the SALL4A or B-NanoLuc fusion protein. SALL4A or B fused to nanoluciferase (Nluc) was expressed in a multicistronic mRNA with control firefly luciferase (Fluc). The measurement of Nluc/Fluc ratio enabled the determination of SALL4 fusion protein degradation relative to the internal Fluc control, independent of effects on transcription (FIG. 1A-B).
The assay was performed as described in Example 1 except in a 1,536-well plate which allows HTS of thermal shift hits from the primary screen, searching for SALL4 small molecule binders that can degrade the oncogenic SALL4B isoform. H1299 cells that stably express SALL4A/B_Nluc_Fluc were seeded in a 1,536-well clear bottom white plate (Corning) at 2,000 cells per well in RPMI medium (6 μL) and grown overnight (16 h) at 37° C., 5% CO2. Cells were treated with 8 μM of compounds for 6 h. Nano-Glo® Dual-Luciferase® Reporter Assay System and Pherastar plate reader were used for measuring the luciferase signal, following the manufacturer's instruction. For data analysis, the Nanoluc luminescence is normalized to firefly luciferase reading and then compared to the DMSO control. The screen was performed in triplicates.
The inventors treated H1299 cells overexpressing SALL4B_Nluc and the HCC (SNU-398, SNU-182) and NSCLC cells (H661) with increasing concentrations of QE-18-WG07 and IMiDs, and assayed the SALL4B_Nluc, as well as the endogenous SALL4A and B levels by immunoblots described in Example 4.

SNU-398 cells = test: CellTiter-Glo viability assay, SNU-398; type: cell-based, human; details: CellTiter-Glo
Method: Cells were plated in RPMI culture media (40 μL) in 384-well white, flat-bottom plates (Corning) and incubated at 37° C. in a humidified atmosphere of 5% CO2 overnight. The numbers of cells per well were 1,500 for SNU-398 and SNU-182, 750 for SNU-387, SNU-449, SNU-475 and SNU-423, and 1,000 for H661 and H1299. After overnight incubation, 10 μL of drug (1% DMSO in RPMI) at designed concentrations were added to the cells. The cells were then incubated for 16, 24, 48, 72, or 96 h at 37° C. in a humidified atmosphere of 5% CO2 before CellTiter-Glo reagent (10 μL) was dispensed to the wells. The cells were incubated at room temperature for a minimum of 10 min. After that, luminescence readings were recorded by a Microplate Reader (PHERAstar or Tecan Infinite M200 Pro) according to the manufacturer's instruction for measuring the luminescence.

IKZF3 = target: T3, IKZF3 (Homo sapiens, UniProt Q9UKT9); test: Immunoblot of IKZF3 in SNU-398 HCC cells; type: cell-based; details: SNU-398 cells
T3 construct: with immunoblots in SNU-398 HCC cells; endogenous in cells; host or cells: SNU-398 HCC cells
Method: as §1

cleaved PARP = test: Immunoblot of cleaved PARP (apoptotic marker) in SNU-398 cells; type: cell-based, human; details: SNU-398 HCC cells, 24 h
Method: as §1

[2] = target: SALL4A-Nluc in H1299 cells (Homo sapiens, UniProt Q96SW2+Q9UJQ4); details: 10 μM, H1299 cells overexpressing SALL4A-nanoluc
From the text: as §2

T2 sequence (Q9UJQ4 1-616 isoform Q9UJQ4-2): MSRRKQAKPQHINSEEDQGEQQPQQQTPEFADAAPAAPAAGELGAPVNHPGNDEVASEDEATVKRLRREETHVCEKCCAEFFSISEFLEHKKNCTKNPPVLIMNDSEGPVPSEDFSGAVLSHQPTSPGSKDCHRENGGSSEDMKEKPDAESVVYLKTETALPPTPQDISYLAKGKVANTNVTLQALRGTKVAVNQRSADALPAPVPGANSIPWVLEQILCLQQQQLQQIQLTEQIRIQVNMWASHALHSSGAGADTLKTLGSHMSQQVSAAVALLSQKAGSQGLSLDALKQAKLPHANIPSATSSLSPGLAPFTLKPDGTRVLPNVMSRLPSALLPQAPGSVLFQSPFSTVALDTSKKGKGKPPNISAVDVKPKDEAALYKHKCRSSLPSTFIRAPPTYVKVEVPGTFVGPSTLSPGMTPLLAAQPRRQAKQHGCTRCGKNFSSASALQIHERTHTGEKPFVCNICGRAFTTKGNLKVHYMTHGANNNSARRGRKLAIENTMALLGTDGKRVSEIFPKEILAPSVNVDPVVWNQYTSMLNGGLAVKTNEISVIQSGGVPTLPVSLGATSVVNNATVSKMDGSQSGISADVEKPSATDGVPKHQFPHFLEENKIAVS
T2 sequence (Q96SW2 whole entry): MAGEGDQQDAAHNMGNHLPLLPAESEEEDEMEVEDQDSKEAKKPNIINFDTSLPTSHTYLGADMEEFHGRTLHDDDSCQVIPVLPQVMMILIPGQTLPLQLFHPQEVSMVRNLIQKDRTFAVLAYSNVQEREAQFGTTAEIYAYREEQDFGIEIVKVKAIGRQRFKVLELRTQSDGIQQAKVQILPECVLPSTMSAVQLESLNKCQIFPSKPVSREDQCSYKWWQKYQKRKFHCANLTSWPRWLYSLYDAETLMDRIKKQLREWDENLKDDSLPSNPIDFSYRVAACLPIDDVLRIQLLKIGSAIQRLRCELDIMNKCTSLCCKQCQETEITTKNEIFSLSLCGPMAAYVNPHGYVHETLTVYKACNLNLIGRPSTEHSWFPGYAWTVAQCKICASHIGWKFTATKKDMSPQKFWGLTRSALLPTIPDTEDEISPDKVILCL
T2 sequence (Q16531 whole entry partner): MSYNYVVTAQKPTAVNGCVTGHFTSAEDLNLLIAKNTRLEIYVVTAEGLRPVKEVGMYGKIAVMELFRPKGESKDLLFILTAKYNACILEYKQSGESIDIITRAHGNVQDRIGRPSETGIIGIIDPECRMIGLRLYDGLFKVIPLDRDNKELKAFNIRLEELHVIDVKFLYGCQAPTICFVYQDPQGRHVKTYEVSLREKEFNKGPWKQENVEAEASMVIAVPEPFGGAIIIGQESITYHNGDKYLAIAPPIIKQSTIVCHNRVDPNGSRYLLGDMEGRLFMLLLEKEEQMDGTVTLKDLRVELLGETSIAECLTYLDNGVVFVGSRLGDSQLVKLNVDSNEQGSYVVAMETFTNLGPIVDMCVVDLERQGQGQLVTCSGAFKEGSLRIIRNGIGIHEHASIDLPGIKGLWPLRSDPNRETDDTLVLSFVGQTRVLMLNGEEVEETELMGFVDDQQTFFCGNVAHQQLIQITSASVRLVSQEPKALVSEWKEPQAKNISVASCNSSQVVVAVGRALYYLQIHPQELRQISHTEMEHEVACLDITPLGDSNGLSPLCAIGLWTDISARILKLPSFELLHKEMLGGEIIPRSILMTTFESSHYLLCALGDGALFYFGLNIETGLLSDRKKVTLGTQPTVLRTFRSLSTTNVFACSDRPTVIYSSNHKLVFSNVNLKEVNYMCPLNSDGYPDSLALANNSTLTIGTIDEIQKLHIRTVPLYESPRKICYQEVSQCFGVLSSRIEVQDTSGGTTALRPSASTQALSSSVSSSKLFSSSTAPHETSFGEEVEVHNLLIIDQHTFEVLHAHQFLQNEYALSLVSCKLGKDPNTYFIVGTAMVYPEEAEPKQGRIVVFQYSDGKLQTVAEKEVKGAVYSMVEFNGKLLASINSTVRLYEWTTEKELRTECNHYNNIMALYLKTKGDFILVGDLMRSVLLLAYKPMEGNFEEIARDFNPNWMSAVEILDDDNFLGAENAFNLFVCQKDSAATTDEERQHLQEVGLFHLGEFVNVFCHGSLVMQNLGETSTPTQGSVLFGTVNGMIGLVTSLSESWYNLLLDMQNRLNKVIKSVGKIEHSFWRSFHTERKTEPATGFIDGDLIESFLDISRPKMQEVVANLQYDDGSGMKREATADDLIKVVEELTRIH
T3 sequence (Q9UKT9 whole entry): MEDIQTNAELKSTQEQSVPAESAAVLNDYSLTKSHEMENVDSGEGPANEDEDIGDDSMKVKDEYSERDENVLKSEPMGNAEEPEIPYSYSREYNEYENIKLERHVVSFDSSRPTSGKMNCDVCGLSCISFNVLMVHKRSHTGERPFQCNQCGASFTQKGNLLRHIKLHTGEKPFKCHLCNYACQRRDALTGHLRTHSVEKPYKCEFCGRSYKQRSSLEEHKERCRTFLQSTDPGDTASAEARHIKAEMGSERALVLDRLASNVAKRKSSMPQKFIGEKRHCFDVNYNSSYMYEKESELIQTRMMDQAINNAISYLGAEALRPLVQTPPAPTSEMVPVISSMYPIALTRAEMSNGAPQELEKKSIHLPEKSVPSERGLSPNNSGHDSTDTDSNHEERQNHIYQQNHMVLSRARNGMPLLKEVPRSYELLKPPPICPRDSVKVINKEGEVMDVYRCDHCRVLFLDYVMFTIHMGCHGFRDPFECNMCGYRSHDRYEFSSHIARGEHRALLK
T1 sequence (Q13422 whole entry): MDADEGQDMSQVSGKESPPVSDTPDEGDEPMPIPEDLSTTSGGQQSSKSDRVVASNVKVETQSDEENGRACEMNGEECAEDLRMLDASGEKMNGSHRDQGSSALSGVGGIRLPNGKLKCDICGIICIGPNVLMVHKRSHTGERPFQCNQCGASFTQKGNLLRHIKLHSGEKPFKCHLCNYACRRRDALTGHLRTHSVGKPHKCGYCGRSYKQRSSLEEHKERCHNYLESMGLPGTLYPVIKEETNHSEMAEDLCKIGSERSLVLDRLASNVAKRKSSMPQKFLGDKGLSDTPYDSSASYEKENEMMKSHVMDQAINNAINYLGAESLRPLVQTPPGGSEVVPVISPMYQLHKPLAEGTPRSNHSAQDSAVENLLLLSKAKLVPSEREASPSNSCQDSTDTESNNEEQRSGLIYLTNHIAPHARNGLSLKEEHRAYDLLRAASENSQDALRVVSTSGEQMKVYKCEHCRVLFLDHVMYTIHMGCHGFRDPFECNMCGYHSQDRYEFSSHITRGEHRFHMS
Sequence of SALL4A-Nluc in H1299 cells (Q96SW2 whole entry): as the sequence (Q96SW2 whole entry) above
Sequence of SALL4A-Nluc in H1299 cells (Q16531 whole entry, further chain): as the sequence (Q16531 whole entry partner) above
Sequence of SALL4A-Nluc in H1299 cells (Q9UJQ4 whole entry): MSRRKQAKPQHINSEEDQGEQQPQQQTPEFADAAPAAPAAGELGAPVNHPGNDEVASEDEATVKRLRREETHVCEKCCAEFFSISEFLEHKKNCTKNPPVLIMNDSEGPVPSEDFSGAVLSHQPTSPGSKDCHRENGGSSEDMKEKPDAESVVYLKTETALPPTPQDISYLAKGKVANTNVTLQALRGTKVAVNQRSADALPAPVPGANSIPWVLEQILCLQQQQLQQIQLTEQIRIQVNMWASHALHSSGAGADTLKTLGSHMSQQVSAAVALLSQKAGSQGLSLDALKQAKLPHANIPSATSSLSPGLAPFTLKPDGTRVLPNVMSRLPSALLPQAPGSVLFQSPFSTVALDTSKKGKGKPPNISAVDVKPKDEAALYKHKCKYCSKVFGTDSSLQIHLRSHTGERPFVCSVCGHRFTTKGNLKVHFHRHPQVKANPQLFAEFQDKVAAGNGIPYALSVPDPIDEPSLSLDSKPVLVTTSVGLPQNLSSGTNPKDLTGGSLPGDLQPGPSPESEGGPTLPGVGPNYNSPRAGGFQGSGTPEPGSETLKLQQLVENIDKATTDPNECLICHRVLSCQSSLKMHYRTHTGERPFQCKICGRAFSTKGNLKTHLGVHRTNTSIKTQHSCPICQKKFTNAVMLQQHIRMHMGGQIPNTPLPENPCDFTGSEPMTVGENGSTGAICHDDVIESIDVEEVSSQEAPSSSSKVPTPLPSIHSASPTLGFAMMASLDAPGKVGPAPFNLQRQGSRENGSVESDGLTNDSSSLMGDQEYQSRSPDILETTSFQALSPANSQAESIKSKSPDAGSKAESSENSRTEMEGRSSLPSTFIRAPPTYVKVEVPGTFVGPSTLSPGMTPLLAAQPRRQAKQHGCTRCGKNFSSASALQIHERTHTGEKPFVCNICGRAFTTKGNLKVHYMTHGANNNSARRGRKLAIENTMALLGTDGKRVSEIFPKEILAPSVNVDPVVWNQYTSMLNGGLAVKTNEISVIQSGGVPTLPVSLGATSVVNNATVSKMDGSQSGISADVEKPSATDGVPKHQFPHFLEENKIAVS

## O=C1CCC(N2C(=O)c3ccccc3C2=O)C(=O)N1 (stereo not drawn) [Thalidomide, reference compound]
c-myc
  effect on the level of c-myc: did not affect
IKZF1
  Dmax: 64%
[1]
  Dmax: 17%
SNU-398 cells
  effect on SNU-398 cell growth: did not result in any antiproliferative consequences
IKZF3
  Dmax: 39%
Cleaved PARP
  cleavage of PARP (apoptosis induction): no cleavage of PARP observed

## Nc1cccc2c1C(=O)N(C1CCC(=O)NC1=O)C2=O (stereo not drawn) [Pomalidomide, reference compound]
[1]
  Dmax: 17%
SNU-398 cells
  effect on SNU-398 cell growth: did not result in any antiproliferative consequences
[2]
  time at which inhibition of SALL4A-Nluc signal became saturated: 8 h
